Calls of active or inactive are those of the source.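 Rule for the calls: active = mean IC50 below 20 µM in each of the two panels, so potent in both; inactive = the rest.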
Target: Neuropilin-1 (Homo sapiens) (UniProt O14786)
Assay: NRP-1 b1b2 CendR peptide binding inhibitors, dose response, biochemical, FP and AlphaScreen panel (AID 651650)
Details: NRP-1 b1b2 / RPARPAR peptide binding, FP or AlphaScreen

Sequence of Neuropilin-1 (Homo sapiens) (O14786 whole entry, looked up): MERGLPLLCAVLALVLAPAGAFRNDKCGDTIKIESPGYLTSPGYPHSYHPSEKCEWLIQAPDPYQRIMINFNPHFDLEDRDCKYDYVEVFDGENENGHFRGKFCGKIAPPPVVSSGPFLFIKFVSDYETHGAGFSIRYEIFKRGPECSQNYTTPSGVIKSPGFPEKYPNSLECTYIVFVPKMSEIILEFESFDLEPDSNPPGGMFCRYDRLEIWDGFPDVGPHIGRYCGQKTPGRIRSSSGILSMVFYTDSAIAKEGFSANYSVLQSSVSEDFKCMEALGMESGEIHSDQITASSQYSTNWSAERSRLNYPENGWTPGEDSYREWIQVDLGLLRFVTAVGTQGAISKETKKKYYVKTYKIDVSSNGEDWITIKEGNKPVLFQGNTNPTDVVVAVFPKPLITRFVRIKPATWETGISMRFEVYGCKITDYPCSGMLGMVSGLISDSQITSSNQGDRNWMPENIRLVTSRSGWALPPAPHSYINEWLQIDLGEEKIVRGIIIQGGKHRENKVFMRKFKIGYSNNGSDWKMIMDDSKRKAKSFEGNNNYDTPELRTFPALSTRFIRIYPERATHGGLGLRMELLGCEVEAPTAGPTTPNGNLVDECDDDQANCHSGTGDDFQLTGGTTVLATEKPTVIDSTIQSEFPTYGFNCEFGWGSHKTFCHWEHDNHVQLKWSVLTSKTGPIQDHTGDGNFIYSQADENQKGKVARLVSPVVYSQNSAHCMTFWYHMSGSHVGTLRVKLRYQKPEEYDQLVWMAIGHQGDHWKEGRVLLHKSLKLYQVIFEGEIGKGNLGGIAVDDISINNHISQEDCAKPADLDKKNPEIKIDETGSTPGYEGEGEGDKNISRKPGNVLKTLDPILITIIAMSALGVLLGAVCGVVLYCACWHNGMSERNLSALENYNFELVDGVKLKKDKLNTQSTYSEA

IC50 (AlphaScreen, mean of runs): > 100 µM (inactive)
IC50 (AlphaScreen, run 1, individual panel run IC50): > 100 µM
IC50 (FP, mean of runs): > 95 µM (inactive)
IC50 (FP, run 1, individual panel run IC50): > 95 µM
IC50 (FP, run 2, individual panel run IC50): > 95 µM
Structure (SMILES): OCC1OC(n2cnc3c(/C=C(\O)c4ccccc4)ncnc32)C(O)C1O (stereo not given)
